Test results: patent US12336981B2, “Compounds and compositions for the inhibition of NAMPT” (Valo Health, Inc., priority 2010, dated 2025)
Like-named read-outs stand apart in the source and are kept apart here.

Assays:
NAMPT = biological target: T1, NAMPT (Homo sapiens, UniProt P43490); experiment: Biochemical inhibition assay: NAMPT enzymatic reaction, NMN quantified by mass spectrometry; details: read-out: Biochem IC50
T1 construct: His tag; host or cells: E. coli
Method in brief: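 Inhibition of E. coli-expressed His-tagged human NAMPT, measured as NMN formation by mass spectrometry after a 30 min room-temperature reaction containing 1 μM NAM, 100 μM PRPP and 2.5 mM ATP.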

A2780 cells = experiment: In-vitro cell proliferation assay (SRB), A2780 cells; format: cell-based; details: Homo sapiens, A2780, 72 h, A2780 cells, 72 hours, read-out: A2780 IC50
Method in brief: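 Read-out is SRB absorbance at 570 nm on TCA-fixed cells after 72 hours of compound treatment at 37° C. in 5% CO2. Background from a media-only plate is subtracted, and % inhibition is interpolated between two tested concentrations.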

T1 sequence (P43490 whole entry): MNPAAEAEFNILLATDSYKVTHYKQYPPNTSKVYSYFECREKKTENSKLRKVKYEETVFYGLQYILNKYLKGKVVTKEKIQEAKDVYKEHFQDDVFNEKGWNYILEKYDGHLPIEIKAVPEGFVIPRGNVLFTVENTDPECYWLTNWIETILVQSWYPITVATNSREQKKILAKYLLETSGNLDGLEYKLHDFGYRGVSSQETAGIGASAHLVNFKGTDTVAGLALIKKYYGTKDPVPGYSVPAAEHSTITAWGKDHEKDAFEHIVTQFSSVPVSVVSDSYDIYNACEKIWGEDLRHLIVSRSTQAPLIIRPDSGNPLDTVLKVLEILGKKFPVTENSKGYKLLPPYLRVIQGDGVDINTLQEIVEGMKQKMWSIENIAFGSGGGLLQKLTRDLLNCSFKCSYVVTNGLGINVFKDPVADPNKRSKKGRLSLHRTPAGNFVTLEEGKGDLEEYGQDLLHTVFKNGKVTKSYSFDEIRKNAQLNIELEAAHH

SMILES	IC50 (NAMPT; NAMPT enzymatic assay) [nM]	IC50 (A2780 cells; SRB) [nM]	IC50 (NAMPT; NAMPT enzymatic reaction) [nM]	IC50 (A2780 cells; SRB assay) [nM]
O=C(NCc1ccc(S(=O)(=O)c2cc(F)cc(N3CCCC3)c2)cc1)c1ccc2nccn2c1	3.9	2.2		
COc1ccc(S(=O)(=O)c2ccc(CNC(=O)c3cc4ccncc4o3)cc2)nc1 [N-{[4-(5-methoxypyridine-2-sulfonyl)phenyl]methyl}furo[2,3-c]pyridine-2-carboxamide]	7.9	31.6		
O=C(NCc1ccc(NS(=O)(=O)c2ccccc2)cc1)c1cc2cnccc2[nH]1 [N-[(4-benzenesulfonamidophenyl)methyl]-1H-pyrrolo[3,2-c]pyridine-2-carboxamide]			11	5
COc1c(C(F)(F)F)cccc1S(=O)(=O)c1ccc(CNC(=O)c2cc3ccncc3s2)cc1	9.4	12.8		
O=C(NCc1ccc(S(=O)(=O)c2cncc3ccccc23)cc1)c1cnc2[nH]ncc2c1 [N-{[4-(isoquinoline-4-sulfonyl)phenyl]methyl}-1H-pyrazolo[3,4-b]pyridine-5-carboxamide]	3.7	2.5		
Cc1cc(C)c(S(=O)(=O)c2ccc(CNC(=O)c3cnc4[nH]ncc4c3)cc2)cc1C [N-({4-[(2,4,5-trimethylbenzene)sulfonyl]phenyl}methyl)-1H-pyrazolo[3,4-b]pyridine-5-carboxamide]		19.3	31.3	
Cc1cc(F)ccc1S(=O)(=O)c1ccc(CNC(=O)c2cc3cnccc3[nH]2)cc1 [N-({4-[(4-fluoro-2-methylbenzene)sulfonyl]phenyl}methyl)-1H-pyrrolo[3,2-c]pyridine-2-carboxamide]			19	27
O=C(NCc1ccc(S(=O)(=O)c2ccccc2)cc1)c1ccc2ncncc2c1 [N-{[4-(benzenesulfonyl)phenyl]methyl}quinazoline-6-carboxamide]			16100	21300
CCOc1cc(F)ccc1S(=O)(=O)c1ccc(CNC(=O)c2ccc3nccn3c2)cc1		1.5	31.4	
Cc1ccncc1S(=O)(=O)c1ccc(CNC(=O)c2cc3ccncc3s2)cc1 [N-{[4-(4-methylpyridine-3-sulfonyl)phenyl]methyl}thieno[2,3-c]pyridine-2-carboxamide]	29.2	22.5		
COc1cc(F)ccc1S(=O)(=O)c1ccc(CNC(=O)c2cnc3nccn3c2)cc1		73.6	19.1	
COc1ccc(S(=O)(=O)c2ccc(CNC(=O)c3cnc4[nH]ncc4c3)cc2)c(Cl)c1 [N-({4-[(2-chloro-4-methoxybenzene)sulfonyl]phenyl}methyl)-1H-pyrazolo[3,4-b]pyridine-5-carboxamide]		87.7	51.6	
COc1c(Cl)cccc1S(=O)(=O)c1ccc(CNC(=O)c2cc3ccncc3o2)cc1		62.3	19.2	
O=C(NCc1ccc(S(=O)(=O)c2ccc(C3CCCCC3)cc2)cc1)c1cnc2nccn2c1		7.7	5.8	
O=C(NCc1ccc(S(=O)(=O)c2cccc(-c3ccc(F)c(F)c3)n2)cc1)c1cc2ccncc2o1 [N-({4-[6-(3,4-difluorophenyl)pyridine-2-sulfonyl]phenyl}methyl)furo[2,3-c]pyridine-2-carboxamide]	5	42.7		
O=C(NCc1ccc(S(=O)(=O)c2ccc(Cl)cc2)cc1)c1cc2cnccc2[nH]1 [N-({4-[(4-chlorobenzene)sulfonyl]phenyl}methyl)-1H-pyrrolo[3,2-c]pyridine-2-carboxamide]			9	25
CCOc1cccc(S(=O)(=O)c2ccc(CNC(=O)c3cc4ccncc4o3)cc2)c1F		22.7	17.5	
O=C(NCc1ccc(S(=O)(=O)c2cccc3c2Oc2ccccc2S3)cc1)c1cc2cnccc2[nH]1 [N-{[4-(phenoxathiine-4-sulfonyl)phenyl]methyl}-1H-pyrrolo[3,2-c]pyridine-2-carboxamide]			5	0.9
Cn1cc(S(=O)(=O)c2ccc(CNC(=O)c3cc4cnccc4[nH]3)cc2)cn1 [N-{[4-(1-methyl-1H-pyrazole-4-sulfonyl)phenyl]methyl}-1H-pyrrolo[3,2-c]pyridine-2-carboxamide]			48	123
